Measurements published in the NIST ThermoML archive (doi:10.1021/je500050p).
± gives the expanded uncertainty stated by the source.

Assay: activity coefficient (dimensionless); of the first substance listed, at infinite dilution; xn = mol fraction of the nth substance listed
Settings: 101 kPa, Liquid, Chromatography, x1 = 0

C=CCCCC [hex-1-ene] + CC1(C)[C@@H]2CC[C@@]1(CS(=O)(=O)[O-])C(=O)C2.CCCCCCCCCCCCCC[N+](CCCCCC)(CCCCCC)CCCCCC
activity coefficient (323.15 K): 0.85 ± 0.05
activity coefficient (333.15 K): 1.13 ± 0.07
activity coefficient (343.15 K): 1.75 ± 0.12

C=CCCCC [hex-1-ene] + CCCCCCCCCCCCCC[N+](CCCCCC)(CCCCCC)CCCCCC.C[C@H](O)C(=O)[O-]
activity coefficient (323.15 K): 0.93 ± 0.06
activity coefficient (353.15 K): 0.95 ± 0.06
activity coefficient (373.15 K): 0.97 ± 0.06

CCCCCC [hexane] + CC1(C)[C@@H]2CC[C@@]1(CS(=O)(=O)[O-])C(=O)C2.CCCCCCCCCCCCCC[N+](CCCCCC)(CCCCCC)CCCCCC
activity coefficient (323.15 K): 1.05 ± 0.07
activity coefficient (333.15 K): 1.54 ± 0.1
activity coefficient (343.15 K): 1.81 ± 0.12

CCCCCC [hexane] + CCCCCCCCCCCCCC[N+](CCCCCC)(CCCCCC)CCCCCC.C[C@H](O)C(=O)[O-]
activity coefficient (323.15 K): 1.11 ± 0.07
activity coefficient (353.15 K): 1.06 ± 0.07
activity coefficient (373.15 K): 1.06 ± 0.07

CO [methanol] + CC1(C)[C@@H]2CC[C@@]1(CS(=O)(=O)[O-])C(=O)C2.CCCCCCCCCCCCCC[N+](CCCCCC)(CCCCCC)CCCCCC
activity coefficient (323.15 K): 0.08 ± 0.03
activity coefficient (333.15 K): 0.13 ± 0.03
activity coefficient (343.15 K): 0.2

CO [methanol] + CCCCCCCCCCCCCC[N+](CCCCCC)(CCCCCC)CCCCCC.C[C@H](O)C(=O)[O-]
activity coefficient (323.15 K): 0.03
activity coefficient (353.15 K): 0.03
activity coefficient (373.15 K): 0.03

CC1CCCCC1 [methylcyclohexane] + CC1(C)[C@@H]2CC[C@@]1(CS(=O)(=O)[O-])C(=O)C2.CCCCCCCCCCCCCC[N+](CCCCCC)(CCCCCC)CCCCCC
activity coefficient (323.15 K): 0.75 ± 0.05
activity coefficient (333.15 K): 1
activity coefficient (343.15 K): 1.33 ± 0.09

CC1CCCCC1 [methylcyclohexane] + CCCCCCCCCCCCCC[N+](CCCCCC)(CCCCCC)CCCCCC.C[C@H](O)C(=O)[O-]
activity coefficient (323.15 K): 0.86 ± 0.06
activity coefficient (353.15 K): 0.82 ± 0.05
activity coefficient (373.15 K): 0.81 ± 0.05

CC1CCCC1 [methylcyclopentane] + CC1(C)[C@@H]2CC[C@@]1(CS(=O)(=O)[O-])C(=O)C2.CCCCCCCCCCCCCC[N+](CCCCCC)(CCCCCC)CCCCCC
activity coefficient (323.15 K): 0.75 ± 0.05
activity coefficient (333.15 K): 1
activity coefficient (343.15 K): 1.33 ± 0.09

CC1CCCC1 [methylcyclopentane] + CCCCCCCCCCCCCC[N+](CCCCCC)(CCCCCC)CCCCCC.C[C@H](O)C(=O)[O-]
activity coefficient (323.15 K): 0.82 ± 0.05
activity coefficient (353.15 K): 0.78 ± 0.05
activity coefficient (373.15 K): 0.77 ± 0.05

C[N+](=O)[O-] [nitromethane] + CC1(C)[C@@H]2CC[C@@]1(CS(=O)(=O)[O-])C(=O)C2.CCCCCCCCCCCCCC[N+](CCCCCC)(CCCCCC)CCCCCC
activity coefficient (323.15 K): 0.34 ± 0.03
activity coefficient (333.15 K): 0.5 ± 0.1
activity coefficient (343.15 K): 0.7 ± 0.1

C[N+](=O)[O-] [nitromethane] + CCCCCCCCCCCCCC[N+](CCCCCC)(CCCCCC)CCCCCC.C[C@H](O)C(=O)[O-]
activity coefficient (323.15 K): 0.32 ± 0.03
activity coefficient (353.15 K): 0.31 ± 0.03
activity coefficient (373.15 K): 0.31 ± 0.03

CCCCCCCCC [nonane] + CC1(C)[C@@H]2CC[C@@]1(CS(=O)(=O)[O-])C(=O)C2.CCCCCCCCCCCCCC[N+](CCCCCC)(CCCCCC)CCCCCC
activity coefficient (323.15 K): 1.5 ± 0.1
activity coefficient (333.15 K): 2.26 ± 0.15
activity coefficient (343.15 K): 3.24 ± 0.22

CCCCCCCCC [nonane] + CCCCCCCCCCCCCC[N+](CCCCCC)(CCCCCC)CCCCCC.C[C@H](O)C(=O)[O-]
activity coefficient (323.15 K): 1.67 ± 0.11
activity coefficient (353.15 K): 1.59 ± 0.11
activity coefficient (373.15 K): 1.51 ± 0.1

CCCCCCCC [octane] + CC1(C)[C@@H]2CC[C@@]1(CS(=O)(=O)[O-])C(=O)C2.CCCCCCCCCCCCCC[N+](CCCCCC)(CCCCCC)CCCCCC
activity coefficient (323.15 K): 1.24 ± 0.08
activity coefficient (333.15 K): 1.81 ± 0.12
activity coefficient (343.15 K): 2.53 ± 0.17

CCCCCCCC [octane] + CCCCCCCCCCCCCC[N+](CCCCCC)(CCCCCC)CCCCCC.C[C@H](O)C(=O)[O-]
activity coefficient (323.15 K): 1.37 ± 0.09
activity coefficient (353.15 K): 1.31 ± 0.09
activity coefficient (373.15 K): 1.29 ± 0.08

CCCC(C)=O [pentan-2-one] + CC1(C)[C@@H]2CC[C@@]1(CS(=O)(=O)[O-])C(=O)C2.CCCCCCCCCCCCCC[N+](CCCCCC)(CCCCCC)CCCCCC
activity coefficient (323.15 K): 0.52 ± 0.04
activity coefficient (333.15 K): 0.78 ± 0.05
activity coefficient (343.15 K): 1.07 ± 0.07

CCCC(C)=O [pentan-2-one] + CCCCCCCCCCCCCC[N+](CCCCCC)(CCCCCC)CCCCCC.C[C@H](O)C(=O)[O-]
activity coefficient (323.15 K): 0.6 ± 0.1
activity coefficient (353.15 K): 0.59 ± 0.04
activity coefficient (373.15 K): 0.59 ± 0.04

CCC(=O)CC [pentan-3-one] + CC1(C)[C@@H]2CC[C@@]1(CS(=O)(=O)[O-])C(=O)C2.CCCCCCCCCCCCCC[N+](CCCCCC)(CCCCCC)CCCCCC
activity coefficient (323.15 K): 0.47 ± 0.04
activity coefficient (333.15 K): 0.71 ± 0.05
activity coefficient (343.15 K): 1.03 ± 0.06

CCC(=O)CC [pentan-3-one] + CCCCCCCCCCCCCC[N+](CCCCCC)(CCCCCC)CCCCCC.C[C@H](O)C(=O)[O-]
activity coefficient (323.15 K): 0.55 ± 0.04
activity coefficient (353.15 K): 0.55 ± 0.04
activity coefficient (373.15 K): 0.57 ± 0.04

CCCO [propan-1-ol] + CC1(C)[C@@H]2CC[C@@]1(CS(=O)(=O)[O-])C(=O)C2.CCCCCCCCCCCCCC[N+](CCCCCC)(CCCCCC)CCCCCC
activity coefficient (323.15 K): 0.09 ± 0.03
activity coefficient (333.15 K): 0.16 ± 0.03
activity coefficient (343.15 K): 0.26 ± 0.03
